This note sets out measurements from patent US11293024B2, “Antisense antibacterial compounds and methods” (priority 2014, dated 2022).

The data set has as its system existing P. aeruginosa PAO1 biofilm. Nature of the data set: Biofilm reduction in MBEC plate (crystal violet). Type of data set: cell-based, Pseudomonas aeruginosa. The settings on record: at 10 and 5 μM; 2 μg/mL PMBN; 48 hour biofilm. The protocol:
P. aeruginosa PAO1 (5×10^5 cfu/mL) was grown in an MBEC plate for 24 hours. At 24 hours, the pegs were moved to a new 96-well plate containing fresh MHII media and either scrambled, RpsJ, or AcpP PPMO at the indicated concentrations. All wells containing PPMOs (including Scrambled) contained 2 μg/mL of PMBN. The pegs were again moved to new plates with or without PPMOs at 32 and 40 hours. Pegs were processed for crystal violet or visualized with microscopy at 48 hours. […] FIGS. 7B-7D: Spinning Disk confocal microscopy images of 48 hour biofilm treated with (FIG. 7B) 10 μM Scr PPMO #42, (FIG. 7C) 2.5 μM AcpP PPMO #35, (FIG. 7D) 10 μM AcpP PPMO #35. Green channel is PAO1 GFP; Red channel is biofilm stained with 200 μg/mL of Concanavalin A, Alexafluor 647 conjugate.
Pseudomonas aeruginosa Biofilm Reduction in MBEC Plate Protocol
• 1. 10 mL of MH is inoculated with a single colony and incubated at 37° C. and ˜250 rpm for about 5 hours. • 2. The sample is centrifuged for 10 minutes at ˜4000 rpm at 4° C., the supernatant decanted and the pellet resuspended in 10 mL of 150 mM NaCl or PBS. This step is repeated to wash the pellet 3 times. • 3. […] The OD600 of the sample is taken and cfu/mL is calculated. […]
1. […] The final OD570 of the 10× dilution of solution should be approximately 0.500 absorbance. […]
2. OD reading: The OD570 for the 96-well plate from step 1e is determined. […]

“PPMO #14: RpsJ PMO GCATTTGACCT, 5′ TEG, 3′ (RXR)4XB CPP”: the “reduction of existing biofilm (crystal violet)” value is given as “statistically significant reduction of biofilm”.
